Measured values: US11078228B2, “Ectonucleotidase inhibitors and methods of use thereof” (Calithera Biosciences, Inc., priority 2018, dated 2021)

target: recombinant CD73 (Homo sapiens (Human), UniProt P21589); experiment: Assay 1: Inhibition of the CD73 enzyme in vitro (0.5 nM CD73, 30 min room temperature, Malachite Green); format: biochemical; conditions: 0.5 nM CD73, 30 minutes at room temperature
Experimental: For measurements of soluble CD73 enzyme activity, recombinant CD73 was obtained from R&D Systems, Cat. No. 5795-EN-010. […] Reactions were allowed to proceed for 30 minutes at room temperature before the addition of 100 μL Malachite Green (Cell Signaling Technology, Cat. No. 12776). After 5 minutes at room temperature, absorbance at 630 nm was determined on a microplate spectrophotometer. The concentration of inorganic phosphate was determined using a phosphate standard curve.

Chain of recombinant CD73 (P21589 27-547): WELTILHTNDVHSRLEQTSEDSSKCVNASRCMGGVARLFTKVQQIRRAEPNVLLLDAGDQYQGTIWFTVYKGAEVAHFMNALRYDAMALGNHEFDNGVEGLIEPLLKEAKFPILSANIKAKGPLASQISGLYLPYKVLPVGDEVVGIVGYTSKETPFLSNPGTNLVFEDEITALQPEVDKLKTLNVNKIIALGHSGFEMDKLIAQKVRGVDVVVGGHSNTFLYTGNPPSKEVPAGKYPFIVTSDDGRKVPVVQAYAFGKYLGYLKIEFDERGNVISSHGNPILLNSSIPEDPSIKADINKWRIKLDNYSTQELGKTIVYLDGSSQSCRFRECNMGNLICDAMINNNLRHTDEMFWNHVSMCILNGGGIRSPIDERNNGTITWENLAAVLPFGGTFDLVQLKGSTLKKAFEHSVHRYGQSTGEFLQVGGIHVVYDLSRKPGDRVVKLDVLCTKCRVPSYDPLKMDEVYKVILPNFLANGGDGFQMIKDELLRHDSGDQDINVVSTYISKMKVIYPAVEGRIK

| IC50 [nM] | SMILES |
| --- | --- |
| 336 | C#C[C@@]1(O)[C@@H](CO[C@@H](C(=O)O)c2csc(-c3ccccc3)n2)O[C@@H](n2cnc3c(N)nc(Cl)nc32)[C@@H]1O (single isomer, unassigned) [Example 194] |
| 320 | C#C[C@@]1(O)[C@@H](COC(C(=O)O)c2cscn2)O[C@@H](n2cnc3c(N)nc(Cl)nc32)[C@@H]1O (stereo partly drawn) [Example 179, 2-(((2R,3S,4R,5R)-5-(6-amino-2-chloro-9H-purin-9-yl)-3-ethynyl-3,4-dihydroxytetrahydrofuran-2-yl)methoxy)-2-(thiazol-4-yl)acetic acid] |
| 0.8 | C#C[C@@]1(O)[C@@H](COC(Cc2ccccc2)(C(=O)O)C(=O)O)O[C@@H](n2cnc3c(NCC4CC4)nc(Cl)nc32)[C@@H]1O [Example 92, 2-benzyl-2-(((2R,3S,4R,5R)-5-(2-chloro-6-((cyclopropylmethyl)amino)-9H-purin-9-yl)-3-ethynyl-3,4-dihydroxytetrahydrofuran-2-yl)methoxy)malonic acid] |
| 4630 | C#C[C@@]1(O)[C@@H](COC(C(=O)O)S(C)(=O)=O)O[C@@H](n2cnc3c(NC4CCCC4)nc(Cl)nc32)[C@@H]1O (stereo partly drawn) [Example 120, 2-(((2R,3S,4R,5R)-5-(2-chloro-6-(cyclopentylamino)-9H-purin-9-yl)-3-ethynyl-3,4-dihydroxytetrahydrofuran-2-yl)methoxy)-2-(methylsulfonyl)acetic acid] |
| 56 | C#C[C@@]1(O)[C@@H](COC(Cc2cccc(OC(F)(F)F)c2)(C(=O)O)c2cscn2)O[C@@H](n2cnc3c(N)nc(Cl)nc32)[C@@H]1O (stereo partly drawn) [Example 183, 2-(((2R,3S,4R,5R)-5-(6-amino-2-chloro-9H-purin-9-yl)-3-ethynyl-3,4-dihydroxytetrahydrofuran-2-yl)methoxy)-2-(thiazol-4-yl)-3-(3-(trifluoromethoxy)phenyl)propanoic acid] |
| 1580 | C#C[C@@]1(O)[C@@H](COC(C(=O)O)S(=O)(=O)c2ccccc2)O[C@@H](n2cnc3c(NC4CCCC4)nc(Cl)nc32)[C@@H]1O (stereo partly drawn) [Example 129, 2-(((2R,3S,4R,5R)-5-(2-chloro-6-(cyclopentylamino)-9H-purin-9-yl)-3-ethynyl-3,4-dihydroxytetrahydrofuran-2-yl)methoxy)-2-(phenylsulfonyl)acetic acid] |
